For one series, the system named is M. incognita J2 larvae. The series is described as follows: Meloidogyne incognita in vitro assays (J2 movement). Format: in vivo. The conditions noted are these: 45 μM, 2 days, relative to DMSO control. On the procedure:
M. incognita (Kofoid & White) Chitwood Race 1 (originally isolated in Maryland) was used for all experiments, and was maintained on pepper (Capsicum annuum L.) cv. PA-136 in a greenhouse as previously described^64. Infective J2 juveniles were collected as described in ref.65. The microwell dose-response experiments were carried out similarly to previously described protocols^64, 66. In brief, 100 J2s, in 10 μL of deionized water, were added to the wells of 96-well polystyrene plates, after which 190 μL of deionized water containing dissolved chemical, or DMSO alone, was added to each well. The chemicals were tested at 45 μM, and the final concentration of DMSO in each well was 0.5% (v/v). The wells were covered with a plastic adhesive strip, and the lids of the plates were sealed with parafilm. The plates were incubated at 25° C. The mobile fraction of worms was quantified by counting the number of mobile and immobile worms after 2 days of incubation, and then dividing the number of mobile worms by the total number of worms in the well. Three technical replicates were performed for each treatment, and an average value for the mobile fraction of worms was calculated across the three replicates. The percent effectiveness at inhibiting nematode movement was calculated by dividing the average value for the chemical treatment by the average value for the DMSO control, then subtracting this value from 1, and then multiplying by 100.

Series [1] in a line: Limit of solubility / precipitation in assay media. Type of series: physicochemical. The conditions noted are these: 100 μM in water, 0.5% DMSO (zebrafish assay).

Regarding `Cc1csc2nc(-c3ccccc3)cn12` [Compound Ie], in the series on M. incognita J2 larvae, the “% effectiveness at reducing M. incognita movement” value is 4.9%.
`Clc1ccc(-c2cn3ccsc3n2)cc1` [Ia]: in series [1], the compound precipitation entry is listed as “Some compound precipitation was observed”.

The values are drawn from patent US20220264883A1, “IMIDAZOTHIAZOLE COMPOUNDS AND METHODS FOR TREATING PLANT NEMATODE INFECTIONS” (The Governing Council of the University of Toronto, priority 2019, published 2022).
